Assay results taken from patent US20200063104A1, “EXPANSION OF HPSC-DERIVED GRANULOCYTIC AND LYMPHOID PROGENITORS WITH UM171” (Wisconsin Alumni Research Foundation, priority 2018, published 2020).

Columns and labels:
[1] = test system: hPSC-derived HPs (CFC potential); test: Methylcellulose colony forming assay of expanded HPs; assay type: cell-based, human
Experimental: Hematopoietic colony forming potential was assessed by combining cells of interest with 1.5 ml serum containing H4436 Methocult (Stem Cell Technologies). Cell suspensions were then transferred to 35-mm dishes and cultured for 12-14 days at 37° C. Hematopoietic colonies were scored according to cellular morphology, and CFC numbers were normalized to the number of cells plated (CFCs/10^4) cells.

[2] = test system: hPSC-derived HPs (NK cell production); test: NK cell differentiation of hPSC-derived HPs on OP9-DLL4; assay type: cell-based, human
Description: To assess the effect of UM171 on NK cell differentiation, we collected HPs from hPSC cultures on day 9 of differentiation, and cultured them on OP9-DLL4, with or without UM171, as shown in FIG. 5A. After 14 days, these cultures generated CD56^+ NK cells that expressed CD94 and CD16, markers of mature NK cells. Although UM171 had no effect on the percentages of NK cells or their phenotype, the absolute numbers of NK cells generated with UM171 were approximately 10-fold higher as compare to DMSO controls (FIG. 5B-D). […] Similar findings were obtained with HPs generated from H9 hESCs and the IISH2i-BM9 iPSC line that was derived from bone marrow mononuclear cells (FIG. 9).
NK differentiation of hematopoietic progenitor cells was performed in α-MEM (Gibco), supplemented with 20% FBS (HyClone), on mouse OP9-DLL4 expressing feeder layer, in two stages. In stage 1, hematopoietic progenitor cells were cultured for 7 days on OP9-DLL4, with 100 ng/ml FLT3L, 40 ng/ml SCF, and 5 ng/ml IL-7 (Peprotech), and 35 nM UM171 or equivalent volume DMSO. Cells were then transferred to fresh α-MEM media, supplemented with 10 ng/ml Il-2 and 5 ng/ml IL-15 (Peprotech), and with or without UM171 treatment. Media was topped up with one volume fresh media, every 3-4 days, and cultures were transferred to new OP9-DLL4 cells, every 7 days. After 14 to 21 days, cells were harvested for flow cytometry and other analyses. OP9-DLL4 were used at 75-80% confluency.

[3] = test system: CD34+CD43+ hPSC-derived HPs; test: Apoptosis by annexin V assay in HP expansion cultures; assay type: cell-based, human; details: 5 days of expansion, UM171 vs DMSO
Experimental: (§1) For apoptosis detection, cells were stained with CD34-FITC, CD45-BV421, and CD43-APC (BD Pharmingen), along with PI and Annexin V-PE (BD Pharmingen), and analyzed by flow cytometry. To assess proliferation of hematopoietic progenitors, using cell proliferation antigen Ki-67, cells were incubated with CD34-PE, CD43-BV421 (BD Pharmingen), and Ghost violet 540 cell viability dye (TONBO Biosciences). Cells were then fixed and permeabilized with 70% ethanol, and stained with Ki67-APC (Miltenyi Biotech), according to the manufacturer protocol, and analyzed by flow cytometry. Cell cycle analysis of total hematopoietic progenitors was carried out using the FITC BrdU flow kit (BD Pharmingen), following manufacturer recommendations. On day four of HP expansion in HSC or lymphoid expansion conditions and on day 3 of NK differentiation cells were labelled with BrdU. […] CD34^+CD43^+CD45^+ and CD34^+CD43^+CD45^+CD41a^+ hematopoietic progenitors, CD34^+CD45^+CD7^+, lymphoid progenitors, or CD45^+CD56^+ NK cells were then analyzed for cell cycle kinetics and proliferation, through BrdU incorporation.

[4] = test system: CD34+CD43+ hPSC-derived HPs; test: Expansion of hPSC-derived hematopoietic progenitors in HSC expansion conditions (flow cytometry); assay type: cell-based, human
Description: To understand the effect of UM171 on hPSC-derived HPs and provide mechanistic insight on its action, we performed hematopoietic differentiation of H1 hESCs in defined feeder- and serum-free defined conditions for 9 days to generate HPs^10. We then cultured the cells in SFEM medium supplemented with cytokines that support expansion of HSCs (TPO, SCF, FLT3L, IL3 and IL6), and with UM171 or DMSO (negative control) (FIG. 1A). […] Overall, cultures with UM171 generated up to 10-fold higher numbers of CD34^+CD43^+CD45^+ HPs, as compared to control cultures.
Hematopoietic progenitors from Day 9 differentiation cultures were expanded in StemSpan™-SFEM (Stem Cell Technologies), supplemented with 35 nM UM171 (Xcess Biosciences), or equivalent volume of DMSO, and 100 ng/ml TPO, 100 ng/ml SCF, 100 ng/ml FLT3L, 50 ng/ml IL-6, and 10 ng/ml IL-3. Expansion cultures were supplemented with fresh StemSpan™-SFEM (Stem Cell Technologies) media with the same cytokine concentrations, every 3 days. Cells were plated at up to 150,000 cells/ml. At day 5 or indicated time points, cells were collected for flow cytometric (FCM) analysis and CFU assay. […]

[5] = test system: CD34+CD45+CD7+ progenitors; test: BrdU cell cycle analysis in NK differentiation cultures; assay type: cell-based, human; details: lymphoid stage of NK differentiation
Experimental: as §1

CD34+CD235+CD41a+ cells = test: RNAseq analysis of CD34+CD235+CD41a+ cells expanded in HSC expansion conditions; assay type: cell-based, human
Experimental: To analyze changes in molecular profile induced by UM171, we isolated CD34^+CD235^+CD41a^+ cells on day 9 of differentiation, cultured them in HSC expansion conditions with UM171 or DMSO for 16 hours and 5 days, and then performed RNAseq analysis of expanded cells.
Total RNA was isolated using RNeasy Micro Kit (Qiagen) and subjected to DNase digestion, according to the manufacturer's protocol. Isolated RNAs were used for either quantitative RT-PCR or RNA sequencing. RNA purity and integrity was evaluated by capillary electrophoresis on the Bioanalyzer 2100 (Agilent Technologies, Santa Clara, Calif.). […] Final sample libraries were quantitated with the Life Technologies Qubit fluorometer and sequenced on the Illumina HiSeq 3000 (SY-401-3001). […] Following quality assessment and filtering for adapter molecules and other sequencing artifacts, the sequencing reads were aligned to transcript sequences corresponding to hg19 human genome annotation. Bowtie v 1.1.2 was used allowing two mismatches in a 25 bp seed and excluding reads with more than 200 alignments^25. RSEM v 1.3.0 was used to estimate isoform or gene relative expression levels in units of “transcripts per million” (tpm), as well as posterior mean estimate of the “expected counts” (the non-normalized absolute number of reads assigned by RSEM to each isoform/gene)^26,27. […]

[6] = test system: CD34+CD43+ hPSC-derived HPs; test: Proliferation and cell cycle (BrdU assay, Ki67 staining) in HP expansion cultures; assay type: cell-based, human
Experimental: For apoptosis detection, cells were stained with CD34-FITC, CD45-BV421, and CD43-APC (BD Pharmingen), along with PI and Annexin V-PE (BD Pharmingen), and analyzed by flow cytometry. To assess proliferation of hematopoietic progenitors, using cell proliferation antigen Ki-67, cells were incubated with CD34-PE, CD43-BV421 (BD Pharmingen), and Ghost violet 540 cell viability dye (TONBO Biosciences). Cells were then fixed and permeabilized with 70% ethanol, and stained with Ki67-APC (Miltenyi Biotech), according to the manufacturer protocol, and analyzed by flow cytometry. Cell cycle analysis of total hematopoietic progenitors was carried out using the FITC BrdU flow kit (BD Pharmingen), following manufacturer recommendations. On day four of HP expansion in HSC or lymphoid expansion conditions and on day 3 of NK differentiation cells were labelled with BrdU. After 24 hours, samples were collected and incubated with CD34-PE, CD43-BV421 (BD Pharmingen), and CD45-APC (Miltenyi Biotech); CD34-PE or 34 PerCP, CD45-BV421 (BD Pharmingen), and CD41a-APC (Miltenyi Biotech); CD45-BV421, CD7-PE, and CD34-APC (BD Pharmingen); or CD45-BV421 and CD56-APC (BD Pharmingen), and then counterstained with Ghost violet 540 cell viability dye (TONBO Biosciences). This was followed by fixation, permeabilization, and a 1 hour incubation with DNase at 37° C., to expose incorporated BrdU. After washing, cells were stained first with anti BrdU-FITC, followed by 7AAD, and flow cytometry was performed. CD34^+CD43^+CD45^+ and CD34^+CD43^+CD45^+CD41a^+ hematopoietic progenitors, CD34^+CD45^+CD7^+, lymphoid progenitors, or CD45^+CD56^+ NK cells were then analyzed for cell cycle kinetics and proliferation, through BrdU incorporation.

[7] = test system: hPSCs (NK cell production); details: 28-day period, prior studies; cited from earlier work
[8] = 5 days of expansion, UM171 vs DMSO

Row | Compound | effect on CFC potential of expanded cells ([1]; HPs expanded 5 and 7 days with UM171 vs DMSO) | share of G-CFCs in the CD34+CD41a(lo)CD45+ progenitor population ([1]; UM171 cultures with HSC expansion cytokines) | fold higher absolute numbers of NK cells as compared to DMSO controls ([2]; 35 nM UM171, after 14 days on OP9-DLL4) | stage of NK differentiation at which addition has an effect ([2]; added during first 7 or final 7-14 days) | percentages of NK cells or their phenotype ([2]; after 14 days on OP9-DLL4, UM171 vs DMSO) | fold increase in NK cell output ([2]; lymphoid cultures on OP9-DLL4 with SCF, FLT3L, IL7, 14-day period) | fold increase in NK and T cell output ([2]; lymphoid cultures on OP9-DLL4 with SCF, Flt-3, IL7) | number of apoptotic, especially late apoptotic (AnnexinV+PI+) cells [3] | number of viable cells [3] | fold higher numbers of CD34+CD43+CD45+ HPs as compared to control cultures ([4]; 35 nM UM171 vs DMSO, H1 hESC-derived day 9 HPs, SFEM with TPO, SCF, FLT3L, IL3, IL6) | CD201 expression in CD34+CD45+ HPs ([4]; HSC expansion conditions, 35 nM UM171) | proportion of proliferating CD34+CD45+CD7+ progenitors [5] | expression of aryl-hydrocarbon receptor target genes (CD34+CD235+CD41a+ cells; UM171 vs DMSO, 16 hours and 5 days) | AHR and AHRR expression (CD34+CD235+CD41a+ cells; hPSC-derived HPs) | cell cycle distribution of HPs [6, 8] | proliferation of HPs by BrdU assay and Ki67 staining [6, 8] | proportions of CD41a(lo) and CD41a(hi) cells within BrdU+ fraction ([6]; UM171 expansion cultures) | fold higher frequency of proliferating CD41a(lo) HPs as compared to DMSO control ([6]; within BrdU+ fraction, CD34+CD45+ gated, 5 days of expansion) | fold increase in NK cell output [7]
1 | Cn1nnc(-c2ccc3c(c2)[nH]c2nc(Cc4ccccc4)nc(NC4CCC(N)CC4)c23)n1 (stereo not shown) [UM171] | most dramatic effect on G-CFCs | > 50% | approximately 10 fold | only when added during the first 7 days | no effect | up to 10 fold | up to 10 fold | decreased number of apoptotic | increased number of viable cells | up to 10 fold | induction of CD201 expression | increases the proportion of proliferating | did not affect | minimal effect | predominantly increases the proportion of HPs in the early S phase | increased proliferation | approximately equal proportions | up to 7 fold | –
2 | CC(C)n1cnc2c(NCCc3ccc(O)cc3)nc(-c3csc4ccccc34)nc21 [SR1] | – | – | – | – | – | – | – | – | – | – | – | – | – | – | – | – | – | – | up to 2 fold
